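Protocol summary: plate cells (96-well), add compound at 5 concentrations, incubate 48 h, interpolate endpoints linearly. TGI denotes the concentration required for complete inhibition of growth.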
Test system: SN12K1 renal
Assay: inhibition of tumour cell growth, NCI panel, 48 h

## COC(=O)NC1C(C)OC(OC2C/C=C(/C)C3C=CC4C(OC5CC(OC6CCC(OC7CC(O)C(OC8CCC(O)C(C)O8)C(C)O7)C(C)O6)C(OC(C)=O)C(C)O5)C(C)CC(C)C4C3(C)/C(O)=C3/C(=O)OC4(CC(C=O)=CC(O)C4/C=C\2C)C3=O)CC1(C)[N+](=O)[O-] (stereo unspecified)
  TGI: 753 nM

— PubChem BioAssay (NCI)
